Experimental data published in patent US9597407B2, “Targeted antimicrobial moieties” (C3 Jian, Inc., priority 2009, dated 2017).
≈ marks a conversion by molar mass, not a printed value. Bridge positions count the residues as written; N and C are the ends. Square brackets hold non-standard residues; d marks the D form. Peptide text beside a SMILES is read from it. I, II: the chains in the order shown. Aoc = NCCCCCCCC(=O)O

How the values were obtained:
E. coli [1] = experiment: Microbial population shift assay, mixed planktonic culture; type: cell-based, Escherichia coli; details: 10 μM peptide, 24 h, detection limit 200 cfu/mL
Experimental: (§1) Peptide (10 μM) or mock-treatment (1×PBS) was then added and samples were incubated at 37° C. for 24 h under anaerobic conditions (80% N2, 15% CO2, 5% H2). […] Plates were then incubated 37° C. under aerobic conditions (TH plates were incubated anaerobically) and colonies counted after 24 h to determine survivors. […] Gram stains and direct microscopic observation (from select isolated colonies) were undertaken to confirm species identity (data not shown). The detection limit of the assay was 200 cfu/mL.
(§2) We hypothesized that potential MH-STAMP dual-functionality could affect a particular set of bacteria within a mixed population, thereby promoting the outgrowth of non-targeted organisms and “shifting” the constituent makeup. To examine this possibility, defined mixed populations of planktonic cells were treated continuously and the make-up of the community examined after 24 h.

S. mutans [2] = type: cell-based, Streptococcus mutans; details: average MIC with standard deviation, n = 10 assays
Experimental: (§3) The active AMPs, STAMPs and the like can be identified and/or validated using an in vitro screening assay. Indeed, in many instances the AMPs and/or STAMPS described herein will be used in vitro as preservatives, topical antimicrobial treatments, and the like.
(§4) Typically, the in vitro antimicrobial activity of antimicrobial agents is tested using standard NCCLS bacterial inhibition assays, or MIC tests (see, National Committee on Clinical Laboratory Standards “Performance Standards for Antimicrobial Susceptibility Testing,” NCCLS Document M100-S5 Vol. 14, No. 16, December 1994; “Methods for dilution antimicrobial susceptibility test for bacteria that grow aerobically-Third Edition,” Approved Standard M7-A3, National Committee for Clinical Standards, Villanova, Pa.).
(§5) Briefly, ˜1×10^5 cfu/mL bacteria were diluted in TH (S. mutans), or Mueller-Hinton (MH) broth (all other organisms) and distributed to 96-well plates. Serially-diluted (2-fold) peptides were then added and the plates incubated at 37° C. for 18-24 h. […] All experiments were conducted 10 times.

P. aeruginosa [3] = experiment: Microbial population shift assay, mixed planktonic culture; type: cell-based, Pseudomonas aeruginosa; details: 10 μM peptide, 24 h, detection limit 200 cfu/mL
Experimental: as §1, §2

S. epidermidis [4] = details: average MIC with standard deviation, n = 10 assays
Experimental: (§6) The active AMPs, STAMPs and the like can be identified and/or validated using an in vitro screening assay.
as §5, with “Peptides were evaluated for basic antimicrobial activity by broth microdilution, as described previously (Eckert et al. (2006) Antimicrob Agents Chemother., 50: 3651-3657; Eckert et al. (2006) Antimicrob Agents Chemother., 50: 1480-1488). Briefly,” for “Briefly,”

P. aeruginosa [5] = details: average MIC with standard deviation, n = 10 assays
Experimental: as §6
as §5, with “Peptides were evaluated for basic antimicrobial activity by broth microdilution, as described previously (Eckert et al. (2006) Antimicrob Agents Chemother., 50: 3651-3657; Eckert et al. (2006) Antimicrob Agents Chemother., 50: 1480-1488). Briefly,” for “Briefly,”

[6] = test system: Klebsiella pneumoniae KAY 2026; type: cell-based; details: K. pneumoniae; average MIC with standard deviation, n = 10 assays
Experimental: (§7) Streptococcus mutans JM11 (spectinomycin resistant, UA140 background) was grown in Todd-Hewitt (TH) broth under anaerobic conditions (80% N2, 15% CO2, 5% H2) at 37° C. Merritt et al. (2005) J Microbiol Meth., 61: 161-170. All bacteria were grown overnight to an OD600 of 0.8-1.0 prior to appropriate dilution and antimicrobial testing.
as §5

[7] = test system: Staphylococcus aureus Newmann; type: cell-based; details: S. aureus; average MIC with standard deviation, n = 10 assays
Experimental: as §7, §5

S. mutans [8] = experiment: Microbial population shift assay, mixed planktonic culture; type: cell-based, Streptococcus mutans; details: 10 μM peptide, 24 h, detection limit 200 cfu/mL
Experimental: as §1, §2

E. coli [9] = type: cell-based, Escherichia coli; details: average MIC with standard deviation, n = 10 assays
Experimental: as §3, §4, §5

S. mutans [10] = experiment: Post-antibiotic effect assay, monoculture growth after 10 min treatment; type: cell-based, Streptococcus mutans; details: peptide 10 min, then fresh medium
Experimental: The activity and selectivity of MH-STAMPs after a 10 min incubation was determined by growth retardation experiments against targeted and untargeted bacteria in monocultures, as described previously (Id.). Cells from overnight cultures were diluted to ˜5×10^6 cfu/mL in MH (or TH with 1% sucrose for S. mutans), normalized by OD600 0.05-0.1 and seeded to 96-well plates. Cultures were then grown under the appropriate conditions for 2 h (3 h for S. mutans) prior to the addition of peptides for 10 min. Plates were then centrifuged at 3000×g for 5 min, the supernatants discarded, fresh medium returned (MH or TH without sucrose for S. mutans), and incubation resumed. Bacterial growth after treatment was then monitored over time by OD600.
MH-STAMP antimicrobial kinetics was ascertained utilizing a variation of the classical post-antibiotic effect assay, which measures the ability of an agent to affect an organism's growth after a short exposure period. Monocultures of MH-STAMP-targeted and untargeted organisms were exposed to M8(KH)-20, M8(BL)-20, BL(KH)-20, or unmodified BD2.20, then allowed to recover. […] Furthermore, replacement of the targeting region with a non-binding peptide abolishes specific activity.

S. epidermidis [11] = experiment: Microbial population shift assay, mixed planktonic culture; type: cell-based, Staphylococcus epidermidis; details: 10 μM peptide, 24 h, detection limit 200 cfu/mL
Experimental: as §1, §2

## CC[C@H](C)[C@H](NC(=O)[C@H](Cc1ccccc1)NC(=O)CCCCCCCNC(=O)[C@H](CCCCNC(=O)CNC(=O)CNC(=O)CNC(=O)[C@H](C)NC(=O)[C@H](CCC(=O)O)NC(=O)[C@H](CC(N)=O)NC(=O)[C@H](C)NC(=O)[C@H](C)NC(=O)[C@@H](N)CC(=O)O)NC(=O)CNC(=O)CNC(=O)CNC(=O)[C@H](CCCNC(=N)N)NC(=O)[C@H](CC(N)=O)NC(=O)[C@H](CC(C)C)NC(=O)[C@H](Cc1ccccc1)NC(=O)[C@H](CCCNC(=N)N)NC(=O)[C@H](Cc1ccccc1)NC(=O)[C@H](Cc1ccccc1)NC(=O)[C@@H](NC(C)=O)[C@@H](C)O)C(=O)N[C@@H](CCCNC(=N)N)C(=O)N[C@@H](CCCCN)C(=O)N[C@@H](Cc1ccccc1)C(=O)N[C@@H](CC(C)C)C(=O)N[C@@H](CCCCN)C(=O)N[C@@H](CCCCN)C(=O)N[C@@H](Cc1c[nH]c2ccccc12)C(=O)N[C@@H](CC(C)C)C(=O)N[C@@H](CC(C)C)C(N)=O [M8(BL)-20] (I: Ac-TFFRFLNRGGGK[Aoc]FIRKFLKKWLL-NH2 / II: H-DAANEAGGG; amide I:12-II:C)
E. coli [1]
  surviving E. coli cfu/mL: not affected or affected to a lesser extent
S. mutans [2]
  MIC: 6.25 µM (≈ 23.7 µg/mL)
P. aeruginosa [3]
  surviving P. aeruginosa cfu/mL: not affected or affected to a lesser extent
S. epidermidis [4]
  MIC: 6.25 µM (≈ 23.7 µg/mL)
P. aeruginosa [5]
  MIC: 50 µM (≈ 190 µg/mL)
[6]
  MIC: 6.88 ± 1.98 µM (≈ 26.1 µg/mL)
[7]
  MIC: 18.05 ± 6.58 µM (≈ 68.6 µg/mL)
S. mutans [8]
  surviving S. mutans cfu/mL: greatly reduced compared to input cfu/mL
E. coli [9]
  MIC: 5.97 ± 0.94 µM (≈ 22.7 µg/mL)
S. mutans [10]
  S. mutans growth (OD600) after treatment: effectively retarded
S. epidermidis [11]
  surviving S. epidermidis cfu/mL: not affected or affected to a lesser extent
